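Five compound concentrations were applied to cells in 96-well plates for 48 hours; endpoints were derived by simple linear interpolation of the resulting dose-response curve. TGI is the concentration that stops growth completely.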
Assays:
Test in all cases: inhibition of tumour cell growth, NCI panel, 48 h
MDA-MB-435 = system: MDA-MB-435
OVCAR-3 ovarian = system: OVCAR-3 ovarian
SNB-19 CNS = system: SNB-19 CNS
UACC-257 melanoma = system: UACC-257 melanoma
NCI-H522 lung = system: NCI-H522 lung
K-562 leukemia = system: K-562 leukemia
T-47D breast = system: T-47D breast
UO-31 renal = system: UO-31 renal
RPMI-8226 leukemia = system: RPMI-8226 leukemia
SK-OV-3 ovarian = system: SK-OV-3 ovarian
U251 CNS = system: U251 CNS

| Structure (SMILES) | TGI (MDA-MB-435) | TGI (OVCAR-3 ovarian) | TGI (SNB-19 CNS) | TGI (UACC-257 melanoma) | TGI (NCI-H522 lung) | TGI (K-562 leukemia) | TGI (T-47D breast) | TGI (UO-31 renal) | TGI (RPMI-8226 leukemia) | TGI (SK-OV-3 ovarian) | TGI (U251 CNS) |
| --- | --- | --- | --- | --- | --- | --- | --- | --- | --- | --- | --- |
| COc1cccc(-n2c(N)c(-c3nc4cc(C(F)(F)F)ccc4s3)c3ccc([N+](=O)[O-])cc3c2=O)c1 | > 100 µM | > 100 µM | > 100 µM | > 100 µM | > 100 µM | > 100 µM | > 100 µM | > 100 µM | > 100 µM | > 100 µM | > 100 µM |
| CC(=O)O[C@H]1[C@@H](N2CCN(C)CC2)C[C@H]2[C@@H]3CC=C4C[C@@H](N5CCCC5)CC[C@]4(C)[C@H]3CC[C@@]21C | > 100 µM | > 100 µM | > 100 µM | 49.4 µM | > 100 µM | 33 µM | > 100 µM | > 100 µM | 44.2 µM | > 100 µM | > 100 µM |
| CC(NC(=O)C(N)CC(=O)O)NC(=O)N1CCCC1 (stereo unspecified) | > 100 µM | > 100 µM | > 100 µM | > 100 µM | > 100 µM | > 100 µM | > 100 µM | > 100 µM | > 100 µM | > 100 µM | > 100 µM |
| Cc1cc(-c2nc3cc(F)c(F)cc3s2)ccc1N | > 100 µM | > 100 µM | > 100 µM | > 100 µM | > 100 µM | > 100 µM | > 100 µM | > 100 µM | > 100 µM | > 100 µM | > 100 µM |
| CC1OC(OC2CC(O)(C(=O)CO)Cc3c(O)c4c(c(O)c32)C(=O)c2ccccc2C4=O)CC(N)C1O (stereo unspecified) | 1.49 µM | 1.32 µM | 0.239 µM | 0.326 µM | 0.1 µM | 9.2 µM | 0.134 µM | 0.267 µM | 0.235 µM | 0.142 µM | 0.188 µM |
| Cc1nc(C)c(N2CCN(C#N)CC2)c(=O)[nH]1 | > 100 µM | > 100 µM | > 100 µM | > 100 µM | > 100 µM | > 100 µM | > 100 µM | > 100 µM | > 100 µM | > 100 µM | > 100 µM |
| O=C1OC(c2ccccc2)N/C1=C\c1ccc2c(c1)OCO2 (stereo unspecified) | > 100 µM | > 100 µM | > 100 µM | > 100 µM | > 100 µM | > 100 µM | > 100 µM | > 100 µM | 59.9 µM | > 100 µM | > 100 µM |
| CCNc1ncnc2n[nH]nc12 | > 100 µM | > 100 µM | > 100 µM | > 100 µM | > 100 µM | > 100 µM | > 100 µM | > 100 µM | > 100 µM | > 100 µM | > 100 µM |
| CC(C)=CCC[C@H](C)[C@H]1CC[C@@H](C)c2cc(O)c(C)cc21 | 38.8 µM | 35.3 µM | 31.6 µM | 31.7 µM | 32.4 µM | 46.8 µM | 36.8 µM | 28.2 µM | 56.2 µM | 35.4 µM | 31.1 µM |
| O=C(/C(=C/c1cccs1)c1ccccc1)c1ccccc1 | > 100 µM | > 100 µM | > 100 µM | > 100 µM | > 100 µM | > 100 µM | > 100 µM | > 100 µM | > 100 µM | > 100 µM | > 100 µM |
| CC1(C)CC[C@]2(C(=O)O)CC[C@]3(C)C(=CC[C@@H]4[C@@]5(C)CC[C@H](OC6OC(CO)C(O)C(O)C6OC6OC(CO)C(O)C(O)C6O)C(C)(C)[C@@H]5CC[C@]43C)[C@@H]2C1 (stereo partly specified) | 35.7 µM | 29.9 µM | 32.8 µM | 42 µM | 38 µM | 44.6 µM | 44.8 µM | 35.8 µM | 62.3 µM | 31.9 µM | 16.4 µM |
| CCn1cnc2c(NC(C)=O)ncnc21 | > 100 µM | > 100 µM | > 100 µM | > 100 µM | > 100 µM | > 100 µM | > 100 µM | > 100 µM | > 100 µM | > 100 µM | > 100 µM |
| O=C(N/C(=C\c1ccccc1)C1Nc2ccccc2C(=O)O1)c1ccccc1 (stereo unspecified) | > 100 µM | 96.7 µM | > 100 µM | 58.4 µM | 33.5 µM | 51.9 µM | > 100 µM | 44.2 µM | 63.2 µM | > 100 µM | 51.2 µM |
| Cc1cccc(NC(=S)N/N=C(/c2ccccc2)c2ccccn2)c1 | 17.6 µM | 11.9 µM | 20 µM | 1.57 µM | 14.6 µM | 2.84 µM | 19.6 µM | 10.4 µM | > 7.74 µM | 14.1 µM | 12.5 µM |
| CN1CCN(c2ccc(-n3cc(C(=O)O)c(=O)c4cc(F)c(N5CCN(C)CC5)cc43)nc2)CC1 | > 100 µM | > 100 µM | > 100 µM | > 100 µM | > 100 µM | > 100 µM | > 100 µM | > 100 µM | > 100 µM | > 100 µM | > 100 µM |
| Cc1c2cccc-2c(OCCO)cc2c1[nH]c1ccccc12 | 15.8 µM | 3.75 µM | 18.6 µM | 10.7 µM | 5.38 µM | > 24.3 µM | 24.2 µM | 3.09 µM | 8.52 µM | 14.4 µM | 3.78 µM |
| CC1(C)C2CCC1(CC(=O)O)C(Cl)C2 (stereo unspecified) | > 100 µM | > 100 µM | > 100 µM | > 100 µM | > 100 µM | > 100 µM | > 100 µM | > 100 µM | > 100 µM | > 100 µM | > 100 µM |
| C[C@@H]1OC(=O)/C(=C\N(C)C)[C@H]2CC(=O)N(CCc3cn(S(=O)(=O)C(F)(F)F)c4ccccc34)C[C@H]12 | > 100 µM | > 100 µM | > 100 µM | > 100 µM | > 100 µM | > 100 µM | > 100 µM | > 100 µM | > 100 µM | > 100 µM | > 100 µM |
| CCN(CC)C1=Nc2ccccc2-n2c(C)cnc2C1 | > 100 µM | > 100 µM | > 100 µM | > 100 µM | > 100 µM | > 100 µM | > 100 µM | > 100 µM | > 100 µM | > 100 µM | > 100 µM |
| c1ccc2c(c1)C(=Nc1ccc(N=C3c4ccccc4-c4ccccc43)cc1)c1ccccc1-2 | > 100 µM | > 100 µM | > 100 µM | > 100 µM | > 100 µM | > 100 µM | > 100 µM | > 100 µM | > 100 µM | > 100 µM | > 100 µM |
| CC1(C)O[C@@H]2[C@@H]3OC(=O)C[C@@H]3[C@@H](COCc3ccccc3)[C@@H]2O1 | > 100 µM | > 100 µM | > 100 µM | > 100 µM | > 100 µM | > 100 µM | > 100 µM | > 100 µM | > 100 µM | > 100 µM | > 100 µM |

From PubChem BioAssay (NCI)
